Measurements published in article PMC8279981, “A first-in-human, phase 1 study of the NEDD8 activating enzyme E1 inhibitor TAS4464 in patients with advanced solid tumors” (Investigational New Drugs, 2021).

Assays:
[1] = tested on: advanced or metastatic solid tumors; assay: Phase 1 study: clinical response (RECIST v1.1), PFS; assay type: in vivo, human
Excerpt: Secondary objectives included assessment of AEs, treatment-related AEs, objective response rate (ORR), disease control rate (DCR), progression-free survival (PFS), and PK, pharmacodynamic, and pharmacogenomic (PGx) parameters with TAS4464 administration. The National Cancer Institute Common Terminology Criteria for Adverse Events (NCI CTCAE) v4.03 [17] was used to assess the severity of AEs. The Medical Dictionary for Regulatory Activities (MedDRA) version 22.1 was used to classify AEs. RECIST v1.1 [16] was used to determine clinical response, and all computed tomography images were assessed by the physician at the study site after completion of the imaging procedure. The ORR was defined as the percentage of patients with the best overall response of complete response (CR) or partial response (PR). The DCR was the percentage of patients with a best overall response of CR, PR, stable disease (SD), or non-CR/non-progressive disease (PD). PFS was defined as the time from the date of enrollment until the date of investigator-assessed radiological disease progression or death due to any cause, whichever occurred first. The analysis populations included in the study are summarized in the Supplementary Appendix. DLTs were recorded by incidence and 95% confidence intervals (CI). Median PFS and 95% CIs were calculated using Kaplan–Meier methodology. Best overall response was tabulated, and the ORR and DCR with 95% CIs were calculated by dose level. PK parameters were evaluated using non-compartmental methods. For the pharmacodynamic parameter of cullin-NEDD8 in PBMC, summary statistics and a scatter plot of the percentage change from baseline were produced. Missing data were not imputed. […] SAS software v9.4 (SAS Institute Inc., Cary NC, USA) was used for all statistical processing.

[2] = tested on: 10 cytokines in peripheral blood; assay: Cytokines in peripheral blood (Luminex); assay type: in vivo, human
Method: Assessment of pharmacodynamics included evaluation of cullin-NEDD8, p27^Kip1 protein expression, and cytokines in peripheral blood samples. Expression of cullin-NEDD8 protein in peripheral blood mononuclear cells (PBMC) was analyzed using an enzyme-linked immunosorbent assay (ELISA). For the weekly dosing cohorts, changes from baseline in cullin-NEDD8 complexes in the PBMC on Day 1 and Day 2 of Cycle 1 as measured by ELISA were evaluated. For the weekly dosing with lead-in period cohorts, changes from baseline in cullin-NEDD8 complexes on Day 2 were evaluated. Expression of p27^Kip1 protein (cyclin-dependent kinase inhibitor 1B), a substrate of CRL, was determined by immunohistochemistry (IHC). p27^Kip1 IHC was performed on biopsy tumor specimens collected at baseline and Day 2 of Cycle 1, and their staining intensities were assessed using H-Scoring, with the scores compared between baseline and Day 2 of Cycle 1. […]

[3] = weekly dosing Level 1 (10 mg/m^2), n = 1
[4] = weekly dosing Level 2 (20 mg/m^2), n = 1
[5] = weekly dosing Level 3 (40 mg/m^2), n = 3
[6] = weekly dosing Level 4 (56 mg/m^2), n = 5
[7] = weekly dosing with lead-in Level 3 (20 → 40 mg/m^2), n = 3
[8] = weekly dosing with lead-in Level 4 (20 → 56 mg/m^2), n = 3
[9] = weekly dosing with lead-in Total, n = 6

CCOc1cccc(F)c1C#Cc1cn([C@@H]2O[C@H](CNS(N)(=O)=O)[C@@H](O)[C@H]2O)c2ncnc(N)c12 [TAS4464]
Disease control rate (CR + PR + SD + non-CR/non-PD) ([1]; Total, N = 16): 5 (31.3) n (%)
Not evaluable (best overall response) ([1]; Total, N = 16): 1 (6.3) n (%)
PD (best overall response) ([1]; Total, N = 16): 10 (62.5) n (%)
Response rate (CR + PR) ([1]; Total, N = 16): 0 n (%)
Disease control rate (CR + PR + SD + non-CR/non-PD) [1, 3]: 1 (100.0) n (%)
Not evaluable (best overall response) [1, 3]: 0 n (%)
PD (best overall response) [1, 3]: 0 n (%)
Response rate (CR + PR) [1, 3]: 0 n (%)
Disease control rate (CR + PR + SD + non-CR/non-PD) [1, 4]: 1 (100.0) n (%)
Not evaluable (best overall response) [1, 4]: 0 n (%)
PD (best overall response) [1, 4]: 0 n (%)
Response rate (CR + PR) [1, 4]: 0 n (%)
Disease control rate (CR + PR + SD + non-CR/non-PD) [1, 5]: 1 (33.3) n (%)
Not evaluable (best overall response) [1, 5]: 0 n (%)
PD (best overall response) [1, 5]: 2 (66.7) n (%)
Response rate (CR + PR) [1, 5]: 0 n (%)
Disease control rate (CR + PR + SD + non-CR/non-PD) [1, 6]: 2 (40.0) n (%)
Not evaluable (best overall response) [1, 6]: 0 n (%)
PD (best overall response) [1, 6]: 3 (60.0) n (%)
Response rate (CR + PR) [1, 6]: 0 n (%)
Disease control rate (CR + PR + SD + non-CR/non-PD) ([1]; weekly dosing Total, N = 10): 5 (50.0) n (%)
Not evaluable (best overall response) ([1]; weekly dosing Total, N = 10): 0 n (%)
PD (best overall response) ([1]; weekly dosing Total, N = 10): 5 (50.0) n (%)
Response rate (CR + PR) ([1]; weekly dosing Total, N = 10): 0 n (%)
best overall response ([1]; weekly dosing cohort): no patients showed a CR or PR
DCR ([1]; weekly dosing cohort, 10 patients, 95% CI 18.7–81.3): 50.0%
median PFS ([1]; weekly dosing cohort, 95% CI 1.0–7.0): 3.7 months
Disease control rate (CR + PR + SD + non-CR/non-PD) [1, 7]: 0 n (%)
Not evaluable (best overall response) [1, 7]: 0 n (%)
PD (best overall response) [1, 7]: 3 (100.0) n (%)
Response rate (CR + PR) [1, 7]: 0 n (%)
Disease control rate (CR + PR + SD + non-CR/non-PD) [1, 8]: 0 n (%)
Not evaluable (best overall response) [1, 8]: 1 (33.3) n (%)
PD (best overall response) [1, 8]: 2 (66.7) n (%)
Response rate (CR + PR) [1, 8]: 0 n (%)
Disease control rate (CR + PR + SD + non-CR/non-PD) [1, 9]: 0 n (%)
Not evaluable (best overall response) [1, 9]: 1 (16.7) n (%)
PD (best overall response) [1, 9]: 5 (83.3) n (%)
Response rate (CR + PR) [1, 9]: 0 n (%)
best overall response ([1]; weekly dosing with lead-in period cohort): no patients showed CR, PR, or SD
median PFS ([1]; weekly dosing with lead-in period cohort, 95% CI 0.5–2.9): 1.5 months
expression levels of the 10 cytokines in peripheral blood ([2]; five patients, weekly dosing with lead-in period cohort): no changes in the expression levels
peak expression of IL-1β, IFNγ, IL-12p40, IL-12p70, IL-17A, IL-1α and IL-2 versus baseline ([2]; one patient, weekly dosing with lead-in level 3, Day 3 of Cycle 1): more than four times higher than at baseline
